From patent US20150299219A1, “BICYCLIC PYRAZOLONE COMPOUNDS AND METHODS OF USE” (Calitor Sciences, LLC, priority 2014, published 2015)

Columns and labels:
[1] = Compound stability in rat liver microsomes; assay type: in vitro ADME; conditions: for half-life: pH 7.4, 0.5 mg protein/mL, NADPH, 37° C.; for CLint scaled: pH 7.4, in vivo CLint extrapolated
Description: (§1) Human or rat liver microsomes incubations were conducted in duplicate in polypropylene tubes. The typical incubation mixtures consisted of human or rat liver microsomes (0.5 mg protein/mL), compounds of interest (5 μM) and NADPH (1.0 mM) in a total volume of 200 μL potassium phosphate buffer (PBS, 100 mM, pH 7.4). Compounds were dissolved in DMSO and diluted with PBS such that the final concentration of DMSO was 0.05%. The enzymatic reactions were commenced with the addition of protein after a 3-min preincubation and incubated in a water bath open to the air at 37° C. Reactions were terminated at various time points (0, 5, 10, 15, 30, 60 min) by adding equal volume of ice-cold acetonitrile. The samples were stored at −80° C. until LC/MS/MS assays.
(§2) The concentrations of compounds in the incubation mixtures of human or rat liver microsomes were determined by a LC/MS/MS method. The ranges of the linearity in the concentration range were determined for each tested compounds.
(§3) A parallel incubation was performed using denatured microsomes as the negative control, and reactions were terminated at various time points (0, 15, 60 min) after incubation at 37° C.
(§4) Dextromethorphan (70 μM) was selected as the positive control, and reactions were terminated at various time points (0, 5, 10, 15, 30, 60 min) after incubation at 37° C. Both positive and negative control samples were included in each assay to ensure the integrity of the microsomal incubation system.
(§5) Alternatively, the stability of some of the compounds disclosed herein in human (or rat) liver microsomes were also conducted in the following protocol. The incubations were conducted in duplicate in polypropylene tubes. The typical incubation mixtures consisted of liver microsomes (final concentration: 0.5 mg protein/mL), compounds (final concentration: 1.5 μM) in a total volume of 30 μL K-buffer (contain 1.0 mM EDTA, 100 mM, pH7.4). Compounds were dissolved in DMSO and diluted with K-buffer such that the final concentration of DMSO was 0.2%. The enzymatic reactions were commenced with the addition of 15 μL of NADPH (final concentration: 2 mM) after 10 min preincubation and incubated in a 37° C. incubator. Reactions were terminated at various time points (0, 15, 30, 60 min) by adding 135 μL acetonitrile (contain IS). Protein is removed by centrifugation with 4000 rpm, 10 min. Supernatant was collected for LCMS/MS analysis
(§6) In the above protocol, ketanserin (1 μM) was selected as the positive control, and reactions were terminated at various time points (0, 15, 30, 60 min) after incubation at 37° C. The positive control sample was included in each assay to ensure the integrity of the microsomal incubation system.
(§7) The concentrations of compounds in human or rat liver microsome incubations were plotted as a percentage of the relevant zero time point control for each reaction. The in vivo CLint were extrapolated (ref: Naritomi, Y.; Terashita, S.; Kimura, S.; Suzuki, A.; Kagayama, A.; and Sugiyama, Y.; Prediction of human hepatic clearance from in vivo animal experiments and in vitro metabolic studies with liver microsomes from animals and humans. Drug Metab. Dispos., 2001, 29: 1316-1324).

c-Met (h) = target: T1, c-Met (h) (Homo sapiens, UniProt P08581); test: c-Met (h) kinase assay; assay type: biochemical
T1 construct: purchased Millipore UK Ltd
T1 sequence (P08581 25-1390): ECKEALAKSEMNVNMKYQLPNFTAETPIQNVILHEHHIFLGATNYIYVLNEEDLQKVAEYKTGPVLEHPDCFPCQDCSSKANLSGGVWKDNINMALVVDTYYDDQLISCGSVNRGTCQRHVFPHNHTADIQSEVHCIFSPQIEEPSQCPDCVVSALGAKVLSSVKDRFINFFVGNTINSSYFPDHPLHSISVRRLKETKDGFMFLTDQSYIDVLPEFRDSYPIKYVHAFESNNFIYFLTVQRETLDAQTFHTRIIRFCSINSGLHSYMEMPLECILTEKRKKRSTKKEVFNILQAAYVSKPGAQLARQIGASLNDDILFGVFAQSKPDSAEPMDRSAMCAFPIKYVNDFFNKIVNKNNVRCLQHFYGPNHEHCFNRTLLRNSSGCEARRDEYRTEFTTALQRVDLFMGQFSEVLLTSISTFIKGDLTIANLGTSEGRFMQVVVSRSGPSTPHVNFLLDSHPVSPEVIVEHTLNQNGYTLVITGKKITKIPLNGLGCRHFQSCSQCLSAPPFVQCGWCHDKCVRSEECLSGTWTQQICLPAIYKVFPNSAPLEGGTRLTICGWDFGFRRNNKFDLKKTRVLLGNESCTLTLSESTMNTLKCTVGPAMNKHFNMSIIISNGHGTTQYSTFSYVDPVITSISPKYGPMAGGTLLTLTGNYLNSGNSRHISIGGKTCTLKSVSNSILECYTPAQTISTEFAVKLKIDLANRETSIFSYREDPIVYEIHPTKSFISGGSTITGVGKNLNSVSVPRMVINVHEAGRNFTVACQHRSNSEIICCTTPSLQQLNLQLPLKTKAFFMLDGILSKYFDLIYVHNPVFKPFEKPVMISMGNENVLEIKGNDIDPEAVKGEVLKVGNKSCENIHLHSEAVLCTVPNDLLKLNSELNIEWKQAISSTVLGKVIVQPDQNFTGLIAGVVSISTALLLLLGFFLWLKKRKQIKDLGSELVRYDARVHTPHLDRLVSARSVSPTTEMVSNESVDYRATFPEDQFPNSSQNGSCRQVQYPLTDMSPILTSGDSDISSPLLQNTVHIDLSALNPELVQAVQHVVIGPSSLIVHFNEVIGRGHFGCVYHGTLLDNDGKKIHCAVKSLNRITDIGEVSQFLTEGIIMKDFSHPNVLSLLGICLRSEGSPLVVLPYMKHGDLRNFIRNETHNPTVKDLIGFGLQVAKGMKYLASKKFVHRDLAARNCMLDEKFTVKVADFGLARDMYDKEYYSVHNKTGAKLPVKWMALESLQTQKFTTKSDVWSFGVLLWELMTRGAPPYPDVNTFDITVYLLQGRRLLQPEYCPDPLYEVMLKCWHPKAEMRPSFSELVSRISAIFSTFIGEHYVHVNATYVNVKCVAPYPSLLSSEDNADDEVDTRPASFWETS
Description: Kinase assays can be performed by measurement of incorporation of γ-^33P ATP into immobilized myelin basic protein (MBP). High binding white 384 well plates (Greiner) are coated with MBP (Sigma #M-1891) by incubation of 60 μL/well of 20 μg/mL MBP in Tris-buffered saline (TBS; 50 mM Tris pH 8.0, 138 mM NaCl, 2.7 mM KCl) for 24 h at 4° C. Plates are washed 3× with 100 μL TBS. Kinase reactions are carried out in a total volume of 34 μL in kinase buffer (5 mM Hepes pH 7.6, 15 mM NaCl, 0.01% bovine gamma globulin (Sigma #I-5506), 10 mM MgCl2, 1 mM DTT, 0.02% TritonX-100). Compound dilutions are performed in DMSO and added to assay wells to a final DMSO concentration of 1%. Each data point is measured in duplicate, and at least two duplicate assays are performed for each individual compound determination. Enzyme is added to final concentrations of 10 nM or 20 nM, for example. A mixture of unlabeled ATP and γ-^33P ATP is added to start the reaction (2×10^6 cpm of γ-^33P ATP per well (3000 Ci/mmole) and 10 μM unlabeled ATP, typically. The reactions are carried out for 1 h at room temperature with shaking. Plates are washed 7× with TBS, followed by the addition of 50 μL/well scintillation fluid (Wallac). Plates are read using a Wallac Trilux counter. This is only one format of such assays; various other formats are possible, as known to one skilled in the art.
The above assay procedure can be used to determine the IC50 for inhibition and/or the inhibition constant, Ki. The IC50 is defined as the concentration of compound required to reduce the enzyme activity by 50% under the condition of the assay. The IC50 value is estimated by preparing a 10 point curve using a 1/2 log dilution series (for example, a typical curve may be prepared using the following compound concentrations: 10 μM, 3 μM, 1 μM, 0.3 μM, 0.1 μM, 0.03 μM, 0.01 μM, 0.003 μM, 0.001 μM and 0 μM).
Met (h) is incubated with 8 mM MOPS pH 7.0, 0.2 mM EDTA, 250 μM KKKSPGEYVNIEFG, 10 mM MgAcetate and [γ-^33P-ATP] (specific activity approx. 500 cpm/pmol, concentration as required). The reaction is initiated by the addition of the MgATP mix. After incubation for 40 minutes at room temperature, the reaction is stopped by the addition of 3% phosphoric acid solution. 10 μL of the reaction is then spotted onto a P30 filtermat and washed three times for 5 minutes in 75 mM phosphoric acid and once in methanol prior to drying and scintillation counting.
The kinase assays described herein were performed at Millipore UK Ltd, Dundee Technology Park, Dundee DD2 1SW, UK.

[2] = Compound stability in human liver microsomes; assay type: in vitro ADME; conditions: for half-life: pH 7.4, 0.5 mg protein/mL; for half-life / T1/2: NADPH, 37° C.; for CLint scaled: pH 7.4, in vivo CLint extrapolated; for T1/2: 0.5 mg protein/mL
Description: as §1, §2, §3, §4, §5, §6, §7

half-life [1] [h] | CLint scaled [1] [mL/min/kg] | IC50 (c-Met (h)) [nM] | half-life [2] [h] | CLint scaled [2] [mL/min/kg] | T1/2 [2] | SMILES
3.19 | 13 | 26 | 4.07 | 7.13 |  | O=C(Nc1ccc(Oc2ccnc(NC(=O)C3CC3)c2)cc1)c1c2n(n(-c3ccccc3)c1=O)CCC2 [Ex. 2, N-(4-((2-(cyclopropanecarboxamido)pyridin-4-yl)oxy)phenyl)-2-oxo-1-phenyl-2,4,5,6-tetrahydro-1H-pyrrolo[1,2-b]pyrazole-3-carboxamide]
5.7 | 7.26 | 100 | 32.2 | 0.9 |  | CC(=O)Nc1cc(Oc2ccc(NC(=O)c3c4n(n(-c5ccccc5)c3=O)CCC4)cc2)ccn1 [Ex. 3, N-(4-((2-acetamidopyridin-4-yl)oxy)phenyl)-2-oxo-1-phenyl-2,4,5,6-tetrahydro-1H-pyrrolo[1,2-b]pyrazole-3-carboxamide]

The next lines start with the compound.

SMILES | half-life [1] [h] | CLint scaled [1] [mL/min/kg] | IC50 (c-Met (h)) [nM] | half-life [2] [h] | CLint scaled [2] [mL/min/kg] | T1/2 [2]
CC(=O)Nc1cc(Oc2ccc(NC(=O)c3c4n(n(-c5ccccc5)c3=O)CCOC4)nc2)ccn1 [Ex. 12, N-(5-((2-acetamidopyridin-4-yl)oxy)pyridin-2-yl)-2-oxo-1-phenyl-2,4,6,7-tetrahydro-1H-pyrazolo[5,1-c][1,4]oxazine-3-carboxamide] | 16.6 | 2.49 | 54 |  |  | ∞
O=C(Nc1ccc(Oc2ccnc(NC(=O)C3CC3)c2)cn1)c1c2n(n(-c3ccccc3)c1=O)CCC2 [Ex. 14, N-(5-((2-(cyclopropanecarboxamido)pyridin-4-yl)oxy)pyridin-2-yl)-2-oxo-1-phenyl-2,4,5,6-tetrahydro-1H-pyrrolo[1,2-b]pyrazole-3-carboxamide] | 3.32 | 12.5 | 21 | 8.47 | 3.42 | 
O=C(Nc1ccc(Oc2ccnc(NC(=O)C3CC3)c2)cc1)c1c2n(n(-c3ccccc3)c1=O)CCOC2 [Ex. 19, N-(4-((2-(cyclopropanecarboxamido)pyridin-4-yl)oxy)phenyl)-2-oxo-1-phenyl-2,4,6,7-tetrahydro-1H-pyrazolo[5,1-c][1,4]oxazine-3-carboxamide] | 2.87 | 14.4 | 41 |  |  | ∞
